Data reported in PMC3810134, “Substrate and Inhibitor Specificity of the Type II p21-Activated Kinase, PAK6” (PLoS ONE, 2013).
Where two headings read alike, the source gives them in different places. No end group written: not given here.

Tests used:
mouse models of cancer = details: ref [22]; cited from earlier work
Source text: (§1) ATP-competitive small molecule inhibitors of the type II PAKs could be useful as cancer therapeutics. […] Sunitinib (SU11248) is a potent ATP-competitive multi-kinase inhibitor that is indicated for treatment of renal cell carcinoma, imatinib-resistant gastrointestinal stromal tumors, advanced pancreatic neuroendocrine tumors and other tumor types [ ...

human clinical trials = details: ref [22]; cited from earlier work
Source text: as §1

[1] = system: type II PAKs and also PAK1; details: each of the type II PAKs and also PAK1; ref [22]; cited from earlier work
Source text: as §1

PAK kinases = details: ref [41], cited from earlier work
Source text: (§2) Therefore understanding how sunitinib binds to the type II PAKs may represent a starting point for future small molecule drug discovery. There are currently 6 co-crystal structures of protein kinases in complex with sunitinib deposited in the PDB. These kinases are of VEGFR (4AGD), KIT (3G0E), KIT-D816H mutation (3G0F), ITK (3MIY), CDK2 (3TI1) and phosphorylase kin ...

type II PAKs = details: range over the family, ref [41], read-out: Ki (estimated range); cited from earlier work
Source text: as §2

[2] = target: T1, PAK6 catalytic domain (residues 383–674) (Homo sapiens, UniProt Q9NQU5); experiment: In vitro PAK6 kinase assay (trans-inhibition by peptides, MBP substrate, radioactive); assay type: biochemical
T1 construct: recombinant PAK6 catalytic domain (residues 383–674) purified as described above; 6xHis (N, cleaved yes); made in house; host or cells: E. coli BL21(DE3)
Method: Catalytic domain residues 383–674 of PAK6 (UniProt Q9NQU5) were amplified from cDNA (Open Biosystems) then subcloned into a modified pET-32 vector with an N-terminal 6xHis tag cleavable by TEV protease. A single colony of transformed E. coli BL21(DE3) was grown in Luria-Bertani (LB) medium at 37°C for 7 hours with kanamycin sulfate (100 µg/ml). Then the fresh culture was inoculated (1∶100) into in LB supplemented with kanamycin sulfate (100 µg/ml). Protein expression was induced at an A 600 of 0.4 by addition of 0.3 mM isopropyl-thio-galactopyranoside (IPTG) at 18°C for 14 hr. Cells were harvested and then resuspended in lysis buffer (50 mM HEPES pH 7.5, 500 mM NaCl, 0.5 mM TCEP, and 1 mM PMSF). Lysozyme and DNAse-I were added and the mixture was incubated on ice before three cycles of flash-freezing in a dry ice and ethanol mixture and thawing at 4°C. Following sonication and centrifugation, the supernatant was collected and loaded onto a nickel sepharose column equilibrated with 100 ml binding buffer (50 mM HEPES pH 7.5, 500 mM NaCl, 5 mM imidazole, 0.5 mM TCEP, 5% glycerol). Contaminating proteins were washed away with 200 ml wash buffer (50 mM HEPES pH 7.5, 500 mM NaCl, 30 mM imidazole, 0.5 mM TCEP, 5% glycerol). PAK6 catalytic domain was eluted with an imidazole step gradient and identified by SDS-PAGE. Overnight TEV cleavage was performed by adding TEV protease and dialyzing the mixture against size exclusion buffer (50 mM Tris pH 8, 250 mM NaCl, 5 mM TCEP). PAK6 catalytic domain was then reloaded onto the nickel sepharose column to remove remaining uncleaved protein. The sample then was loaded onto a Superdex 75 16/60 gel-filtration column equilibrated with size exclusion buffer.
Kinase activity was assessed using a radioactive assay with myelin basic protein (MBP) as substrate. […] Kinase assays were performed by adding 150 nM of PAK6, 2 µM of MBP as the substrate, 50 µM of cold-ATP and 0.1 µCi of hot [γ-^33P] ATP in Tris buffer (20 mM Tris-HCl pH 8.0, 0.15 M NaCl, 1 mM DTT and 10 mM MgCl2) for a total volume of 25 µl. […] Control peptide ([…]) was purchased from Anaspec and inhibition assays were performed using between 0.5 mM and 4.5 mM of peptide. The reaction was conducted at 30°C for 10 min and stopped by addition of 5X sample buffer and analyzed by SDS-PAGE. Gels were analyzed by exposure to phosphor storage screen (GE) followed by scanning using a Molecular Imager FX Pro Plus System (Bio-Rad) and quantification by optical densitometry Quantity One (Bio-Rad). Relative activities were compared to those measured for PAK6. Measurements were calculated from at least three independent experiments.

[3] = 150 nM PAK6, 2 µM MBP, 50 µM cold-ATP, [γ-33P] ATP, 20 mM Tris-HCl pH 8.0, 0.15 M NaCl, 1 mM DTT, 10 mM MgCl2, 30°C, 10 min, SDS-PAGE/phosphor storage screen, 3 independent experiments, tested wild-type 0.06-5.85 mM, P52L 1.8-5.85 mM, control 0.5-4.5 mM, read-out: IC50 (inhibition of PAK6 kinase activity)
[4] = 95% confidence interval of the IC50, 3 independent experiments, read-out: 95% confidence (of IC50)

T1 sequence (Q9NQU5 383-674): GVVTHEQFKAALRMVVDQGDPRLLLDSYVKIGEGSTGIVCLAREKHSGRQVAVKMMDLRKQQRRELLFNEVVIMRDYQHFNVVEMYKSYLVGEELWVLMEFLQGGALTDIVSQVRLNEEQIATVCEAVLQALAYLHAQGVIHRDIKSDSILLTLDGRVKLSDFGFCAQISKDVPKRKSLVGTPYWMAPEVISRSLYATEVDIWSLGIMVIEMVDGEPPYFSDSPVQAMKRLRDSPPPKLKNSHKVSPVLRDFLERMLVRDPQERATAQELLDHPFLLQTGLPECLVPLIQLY

Q: What does the source list for Cc1nc(Nc2[nH]nc3c2CN(C(=O)N[C@H](CN(C)C)c2ccccc2)C3(C)C)c2sccc2n1 [PF-3758309]?
A: efficacy in mouse models of cancer (mouse models of cancer): effective in mouse models of cancer; outcome in human clinical trials (human clinical trials): failed in human clinical trials; in vitro activity [1]: displays in vitro activity against each of the type II PAKs and also PAK1

Q: Which results are given for CCN(CC)CCNC(=O)c1c(C)[nH]c(/C=C2\C(=O)Nc3ccc(F)cc32)c1C [Sunitinib]?
A: inhibition of the PAK kinases overall (PAK kinases): weak inhibitor; selectivity (PAK kinases; type II vs type I PAK family members): selectivity for type II over type I PAK family members; Ki (type II PAKs): 0.0005 to 0.007 mM

Q: With APRTPGGRR [control peptide] as the molecule, how does the IC50 [2] read?
A: The IC50 was 3 to 15 mM.

Q: Which IC50 [2, 3] does the source give for RRPKLVVDP [P52L mutant peptide] here?
A: The IC50 was 4.2 mM.

Q: And the IC50 [2, 4]?
A: The IC50 was 3.8 to 4.6 mM.

Q: What does the source list for RRPKPVVDP [N-terminal peptide]?
A: IC50 [2, 3]: 0.6 mM; IC50 [2, 4]: 0.51 to 0.71 mM
